From paper PMC7529893, “Structural basis for substrate recognition and chemical inhibition of oncogenic MAGE ubiquitin ligases” (Nature Communications, 2020) come the findings set out here.

Molecules are shown by their SMILES.

For the first assay, the target named is T1, MAGE-A11:PCF11 interaction (GST-MAGE-A11 and FAM-PCF11_4) (Homo sapiens, UniProt P43364).
T1 construct: GST-MAGE-A11 MHD (human MAGE-A11 MHD amino acid 218-429); made in house; host or cells: E. coli BL21(DE3)
T1 sequence (P43364 218-429): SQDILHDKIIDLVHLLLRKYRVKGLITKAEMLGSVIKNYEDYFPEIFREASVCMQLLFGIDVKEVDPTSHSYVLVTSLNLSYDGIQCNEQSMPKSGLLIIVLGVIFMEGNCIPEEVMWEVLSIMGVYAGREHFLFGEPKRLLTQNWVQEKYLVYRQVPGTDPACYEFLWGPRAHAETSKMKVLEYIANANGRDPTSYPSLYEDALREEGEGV
In words: TR-FRET primary / single point screen at 15 µM. Conditions: single point TR-FRET screening of 797 quinoline compounds against MAGE-A11:PCF11. The assay is classed as binding. In a few lines: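 TR-FRET 520/490 nm emission ratio was read after 90 min at room temperature. Wells held 5 nM GST-MAGE-A11, 5 nM Tb-anti-GST, 200 nM FAM-PCF11_4 and 15 µM compound in Tris pH 7.5 buffer with MgCl2, BSA and DTT. %Inhibition was scaled to DMSO and minus-MAGE-A11 controls.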
Take `CN(C)c1ccc(CN(CCCCNc2ccnc3cc(Cl)ccc23)Cc2ccccc2)cc1` [SJ000522727]: the “percent inhibition (TR-FRET)” value was 21.522.
For the molecule `COc1ccc(CN(CCCCNc2ccnc3cc(Cl)ccc23)Cc2ccccc2)cc1OC` [SJ000522728], the “percent inhibition (TR-FRET)” value is 0.05797.
In the case of `Clc1ccc2c(NCCCCN(CCCc3ccccc3)Cc3ccccc3)ccnc2c1` [SJ000522729], the “percent inhibition (TR-FRET)” value is reported as 27.8155.
Still for that read-out and setting: the value for `CCCN(CCCNc1c2ccc(Cl)cc2nc2ccc(OC)cc12)CCC(C)c1ccccc1` (stereo not shown) [SJ000522731] was -120.975; that for `CCCN(CCCNc1c2ccc(Cl)cc2nc2ccc(OC)cc12)Cc1c(F)cccc1OC` [SJ000522733] was -187.09; that for `CCCN(CCCNc1c2ccc(Cl)cc2nc2ccc(OC)cc12)Cc1ccc([N+](=O)[O-])s1` [SJ000522735] was -154.43.
Still for that read-out and setting: the value for `CCCN(CCCNc1c2ccc(Cl)cc2nc2ccc(OC)cc12)Cc1cn(C(C)=O)c2ccccc12` [SJ000522736] was -192.351.

The assay is the same for the next values; noted with them: single point TR-FRET screening of quinoline compounds against MAGE-A11:PCF11; 15 µM.
`CCCN(CCCNc1c2ccc(Cl)cc2nc2ccc(OC)cc12)CCCSC` [SJ000522730]: the “percent inhibition (TR-FRET)” value was 0.7867.
Still for that read-out and setting: the value for `CCCN(CCCNc1c2ccc(Cl)cc2nc2ccc(OC)cc12)Cc1ccc2[nH]ccc2c1` [SJ000522732] was 39.4714; that for `CCCN(CCCNc1c2ccc(Cl)cc2nc2ccc(OC)cc12)Cc1c(F)c(F)c(F)c(F)c1F` [SJ000522734] was -2.258.
For `CCCN(CCCNc1c2ccc(Cl)cc2nc2ccc(OC)cc12)Cc1cc2ccccc2nc1Cl` [SJ000522737], the “percent inhibition (TR-FRET)” value was -83.7446.
Take `CCCN(CCCNc1c2ccc(Cl)cc2nc2ccc(OC)cc12)Cc1ccc(Cl)c([N+](=O)[O-])c1` [SJ000522738]: the “percent inhibition (TR-FRET)” value is reported as -71.0252.
On the same count and under the same terms, the value for `CCCN(CCCNc1c2ccc(Cl)cc2nc2ccc(OC)cc12)Cc1cccc(C#N)c1` [SJ000522739] was -94.5429.
Same read-out and setting: with `CCCN(CCCNc1c2ccc(Cl)cc2nc2ccc(OC)cc12)Cc1ccc(-c2ccccc2)cc1` [SJ000522740] the figure was -74.0063.
Turning to `CN(C)c1ccc(CN(CCCNc2ccnc3cc(Cl)ccc23)Cc2ccccc2)cc1` [SJ000522741], the “percent inhibition (TR-FRET)” value is 14.7648.
On the same count and under the same terms, the value for `COc1ccc(CN(CCCNc2ccnc3cc(Cl)ccc23)Cc2ccccc2)cc1OC` [SJ000522742] was -0.5383.
The same measure, in the same setting: with `CCCN(CCCNc1ccnc2cc(Cl)ccc12)Cc1ccccn1` [SJ000522743] the figure was 1.3128; with `CCCN(CCCNc1ccnc2cc(Cl)ccc12)Cc1ccsc1` [SJ000522744], 7.824.
`CCCN(CCCNc1ccnc2cc(Cl)ccc12)Cc1ccccc1C(F)(F)F` [SJ000522745]: the “percent inhibition (TR-FRET)” value was -38.0341.
Same read-out and setting: with `CCCN(CCCNc1ccnc2cc(Cl)ccc12)Cc1ccc2[nH]ccc2c1` [SJ000522746] the figure was 96.845; with `CCCN(CCCNc1ccnc2cc(Cl)ccc12)Cc1ccccc1N` [SJ000522747], 15.4273; with `CCCN(CCCNc1ccnc2cc(Cl)ccc12)Cc1c(F)c(F)c(F)c(F)c1F` [SJ000522748], 19.8658.
Same read-out and setting: with `CCCN(CCCNc1ccnc2cc(Cl)ccc12)Cc1c(C)cc(C)cc1C` [SJ000522749] the figure was 35.4339; with `CCCN(CCCNc1ccnc2cc(Cl)ccc12)Cc1ccc([N+](=O)[O-])s1` [SJ000522750], 9.134.
Regarding `CCCN(CCCNc1ccnc2cc(Cl)ccc12)CC1CCCCC1` [SJ000522751], the “percent inhibition (TR-FRET)” value is 15.626.
Still for that read-out and setting: the value for `CCCN(CCCNc1ccnc2cc(Cl)ccc12)CC(CC)CC` [SJ000522752] was 14.1686; that for `CCCN(CCCNc1ccnc2cc(Cl)ccc12)Cc1ccc2c(c1)OCO2` [SJ000522753] was 18.7467; that for `CCCCCN(CCC)CCCNc1ccnc2cc(Cl)ccc12` [SJ000522754] was 16.2885.
